In one assay the test system is CCL2/MCP-1. Put plainly: In vivo cytokine induction, plasma cytokine levels: CCL2/MCP-1 (Example 12). Also on record: species or system BALB/C mice. As to conditions: single intratumoral dose. The procedure:
Mice were subcutaneously implanted with 3×10^5 CT26 tumor cells in the left and right flanks. […] Hydrogels were administered as suspensions in PBST buffer. K2 EDTA-preserved blood samples were collected by retro-orbital bleed at various time points following drug administration and plasma was isolated following centrifugation at 2000×g for 5 minutes at 4° C. and frozen. Plasma samples were stored at −80° C. Plasma was thawed and undiluted samples were assessed for cytokine levels using the 36-Plex Mouse ProcartaPlex™ Cytokine Panel 1A (ThermoFisher Scientific) following manufacturer's recommendations. Cytokines were measured on the Bio-Plex 200 (BioRad) following kit instructions. For sample values below or at the lower limit of quantitation (LLOQ) of the assay, a value of 0.01 pg/mL was instead used in determining mean cytokine concentrations.

For another assay, the system named is CD4+ T cells. Nature of the assay: Flow cytometry of tumor draining lymph nodes: frequency of CD4+ T cells of CD3+ T cells (Example 15). In kind it is in vivo, BALB/C mice. As to conditions: 7 days after randomization. The procedure:
Hydrogels were administered as suspension in PTP buffer. Some cohorts were further treated with 20 μg human IL-2 (Peprotech, Rocky Hill, N.J.), intraperitoneally (I.P.), twice a day for 5 days. Mice were sacrificed 7 days after randomization (D0). Following sacrifice, tumor draining lymph nodes were isolated from both flanks and were dissociated mechanically to generate a single cell suspension at a cell concentration of 1×10^6 cells per sample. Cell suspensions were centrifuged at 300 g for 5 minutes. Supernatants were discarded and cells were resuspended in FACS buffer with 1 μg/ml Fc-Block and incubated at 4° C. for 10 minutes in the dark. Surface marker antibody mixtures (antibody concentration: 10 μg/mL) in FACS buffer were added to each sample and samples were incubated in the dark at 4° C. for 30 minutes. Cells were centrifuged at 300 g for 5 minutes and supernatants were discarded. Cells were washed and then resuspended with FACS buffer before cytometer collection.
After collection, FACS data was analyzed using FlowJo Version 10.6.1. Compensation was digitally adjusted using single antibody-stained beads. Samples with less than 90% viability, as determined by LiveDead cell staining, were excluded from the analysis. […]
In general terms: Flow cytometry measures light scatter and fluorescence of single cells or particles in a stream.

Another assay concerns Il1b. Nature of the assay: PBMC gene expression (qPCR, 6 hours post-treatment): Il1b (Example 17). Type of assay: in vivo, BALB/C mice. The protocol:
(§1) Hydrogels were administered as suspensions in PTP buffer. […] Tumors were excised, weighed and snap frozen.
(§2) For PBMC isolations, approximately 600 μl of whole blood was collected via cardiac puncture. The collected whole blood from each individual mouse was diluted with a 1:1 ratio of pre-warmed PBS supplemented with 2% Fetal Bovine Serum (FBS). Then an equal volume of Histopaque-1083 was added to a new sterile 15 mL conical tube, where the diluted whole blood was layered over the Histopaque-1083. The mixture was then centrifuged at 400 g for 30 minutes. […]
(§3) Lysates from untreated control samples and 6 hour treated samples were thawed and RNA was isolated using the RNeasy Mini Kit (QIAGEN) following manufacturer's recommendations. […] RNA concentrations were measured using a NanoDrop (ThermoFisher) and then adjusted to […] with RNase-free water. RNA quality was assessed using a NanoDrop (ThermoFisher). […] 200 ng of cDNA was used for quantitative PCR using the RT^2 SYBR Green ROX qPCR Master mix (2×) kit (QIAGEN) following manufacturer's recommendations. […]
(§4) Cycle thresholds (CT) were collected using a 384-well platform ABI-7900H real-time qPCR system (Applied Biosystems). […] 2^ΔΔCT values were calculated with the following formula: […]
(§5) For each gene, 3 technical replicates were analyzed per biological replicate. Undetermined technical replicate CT values were recorded as zero ΔCT values. […]
A general note: In qPCR the cycle at which signal appears reflects the starting amount.

A further assay relates to Ifna4. Nature of the assay: PBMC gene expression (qPCR, 6 hours post-treatment): Ifna4 (Example 17). Type of assay: in vivo, BALB/C mice. The procedure: as §1, §2, §3, §4, §5
Another assay has as its system Cxcl1. Put plainly: PBMC gene expression (qPCR, 6 hours post-treatment): Cxcl1 (Example 17). Type of assay: in vivo, BALB/C mice. The procedure:
as §1, §2, §3, §4, §5

The test system of the next assay is Cxcl10. Put plainly: PBMC gene expression (qPCR, 6 hours post-treatment): Cxcl10 (Example 17). In kind it is in vivo, BALB/C mice. The procedure: as §1, §2, §3, §4, §5

Marks after values point to notes of the source that are not given here.

Regarding Resiquimod [Compound 4], the “CCL2/MCP-1 plasma level, Mean” value is listed as 357.83 pg/mL in the assay on CCL2/MCP-1 (1 h post-treatment); 4230.35†, ‡ pg/mL in the assay with CCL2/MCP-1 (3 h post-treatment); 1039.17†, ‡ pg/mL with CCL2/MCP-1 (6 h post-treatment); 847.07† pg/mL in the assay on CCL2/MCP-1 (10 h post-treatment); 92.58 pg/mL in the assay on CCL2/MCP-1 (24 h post-treatment). In addition, the “Frequency of CD4+ T cells of CD3+ T cells, Mean” value in the assay on CD4+ T cells (injected right flank tumor) came out at 69.1%; with CD4+ T cells (uninjected left flank tumor), 69.25%. The “Il1b Mean (2^ΔΔCT)” value in the assay with Il1b was 3.71†. Besides, the “Il1b Fold change (4/13i)” value with Il1b (ratio of 4 to 13i) was 7.92. Moreover, the “Ifna4 Mean (2^ΔΔCT)” value in the assay with Ifna4 is 2.97. The “Ifna4 Fold change (4/13i)” value with Ifna4 (ratio of 4 to 13i) is 20.48. For the same substance, the “Cxcl1 Mean (2^ΔΔCT)” value with Cxcl1 turned out to be 7.41. For the same substance, the “Cxcl1 Fold change (4/13i)” value in the assay on Cxcl1 (ratio of 4 to 13i) was 11.54. Further, the “Cxl10 Mean (2^ΔΔCT)” value in the assay with Cxcl10 is 45.38. The “Cxl10 Fold change (4/13i)” value in the assay on Cxcl10 (ratio of 4 to 13i) turned out to be 21.41.

Values taken from US20220054477A1, “INDUCTION OF SUSTAINED LOCAL INFLAMMATION” (Ascendis Pharma Oncology Division A/S, priority 2019, published 2022).
